# Measurements as given in paper PMC6033213, “Structurally simple synthetic 1, 4-disubstituted piperidines with high selectivity for resistant Plasmodium falciparum” (BMC Pharmacology & Toxicology, 2018).
# Where two headings read alike, the source gives them in different places.
# How the values were obtained:
# [1] = tested on: P. falciparum 3D7; experiment: Secondary screen: parasite growth inhibition by parasite lactate dehydrogenase (pLDH) assay, 3D7; type: cell-based, Plasmodium falciparum; design: key to Antiplasmodial activity class on 3D7: active, IC50 < 5 μg/mL; moderately active: 5 μg/mL ≤ IC50 ≤ 10 μg/mL; weakly active: IC50 ≥ 10 μg/mL
# Text: (§1) Two Plasmodium falciparum parasite strains were obtained from MR4 (Manassas, Virginia, USA) and stored in liquid nitrogen. The 3D7 (MRA-102) strain is chloroquine- sensitive while Dd2 is a multidrug resistant clone of the W2 strain with resistance to chloroquine, quinine, mefloquine, sulfadoxine and pyrimethamine. Parasite stocks were thawed, grown and maintained in continuous culture by the candle jar technique with some modifications. The culture consisted of 4% hematocrit suspension of human O+ erythrocytes in RPMI-1640 medium (10.43 g/L supplemented with 0.01 mg/mL gentamycin, 25 mM Hepes buffer, 25 mM NaHCO3) and 5 g Albumax II. All culture reagents were obtained from Sigma-Aldrich Inc. (Germany) except for Albumax II (Gibco; Invitrogen, USA). Cultures were incubated at 37 °C in 5% CO2.
# (§2) After incubation the plate was frozen at − 20 °C for the parasite lactate dehydrogenase (pLDH) assay.
# (§3) The reagent preparation and assay were done as described. The plates were subjected to 3 freeze-thaw cycles to haemolyze the red blood cells. One hundred microlitre (100 μL) of Malstat reagent was added to each required well of a fresh microtitre plate followed by 20 μL of culture. Then 25 μL of nitroblue tetrazolium/phenazine ethosulfate (NBT/PES) solution was added initiating the reaction. The plates were then incubated for an hour in the dark and optical density (OD) measured at 650 nm (Emax-Molecular Devices Corporation, California, USA).
# (§4) For the parasite lactate dehydrogenase assay, the background OD of blank wells containing non parasitized red blood cells was subtracted from values of all test wells. OD values from control wells void of test compound represented the maximum pLDH activity. The OD values obtained were used to determine the IC50, and IC90 values using the software IC Method IC Estimator V1.2 [18], an online calculator of IC values. Each assay was done twice in duplicates and the 4 IC50 or CC50 values obtained were pooled together and expressed as mean IC ± S.D.
# [2] = Cytotoxicity test, MTT/formazan assay; type: cell-based, monkey; details: monkey, LLC-MK2 monkey kidney epithelial cells; LLC-MK2 cells, 72 h, MTT/formazan
# Protocol: (§5) This was done on monkey kidney epithelial cells, LLC-MK2, (ATCC, USA) as described except for use of same culture medium and conditions for P falciparum above. The cells, 10,000 in 100 μL medium per well, were cultured for 24 h to become confluent and attached to the bottom of the well and the medium replaced with 100 μL of fresh medium. […] A negative control without test substance was included. The plates were incubated for 72 h at 37 °C in 5% CO2 and cell viability were determined using microscopy to observe dead cells which appeared dark and deformed. This was followed by the MTT/formazan assay as described above with slight modification. The CC50 values (50% cytotoxic concentration) for each compound was obtained using Microsoft excel 2007. The selectivity index (SI) was calculated using the formula:3 SI=CC50onLLC‐MK2cells/IC50onP.falciparum
# as §4
# [3] = tested on: LLC-MK2 monkey kidney epithelial cells; experiment: Cytotoxicity test, MTT/formazan assay; type: cell-based; details: for Mean SI: mean of the Selectivity Indices of the 3D7 and Dd2 parasite strains; for SI on 3D7: CC50 on LLC-MK2 cells/IC50 on P. falciparum 3D7; for SI on Dd2: CC50 on LLC-MK2 cells/IC50 on P. falciparum Dd2
# Protocol: as §5, §4
# [4] = tested on: P. falciparum Dd2; experiment: Primary screen: in vitro parasite growth inhibition at a single concentration, fluorescence microscopy with acridine orange; type: cell-based, Plasmodium falciparum; details: 40 μg/mL, 48 h, Dd2 chloroquine-resistant strain; for inhibition at 40 µg/mL: Plasmodium falciparum
# Text: as §1
# A primary screen for antiplasmodial activity at a single concentration was performed against Dd2 as described with some modifications, to identify active compounds. Stock solutions of compound (1 mg/mL) was initially dissolved in dimethylsulfoxide (DMSO), then gentamycin-free incomplete medium (without Albumax II) added giving 2% final DMSO; the solutions were sterilized and stored. The positive control solutions (artemether and quinine at 5 μg/mL) were prepared similarly. The compounds were tested at a final concentration of 40 μg/mL in duplicate in a 96 well microtitre plate (100 μL per well), followed by 100 μL of 1% parasitized blood. Positive and negative controls (no drug) were included. The plate was incubated under the same culture conditions as above for 48 h and antiplasmodial activity determined by fluorescence microscopy (Leitz Wetzlar, Germany) with acridine orange stain at × 40 magnification under oil immersion. The number of infected erythrocytes (Ei) was counted in 20 monolayer fields (approximately 1500 cells per field) and the percentage parasitaemia was calculated using the formula:1 %parasitaemia=∑Ei/30,000×100
# The percentage inhibition per concentration was then obtained using the formula below:2 percentage%inhibition=%parasitaemia of control well‐%parasitaemia of test well/%parasitaemia of control well×100
# [5] = tested on: P. falciparum Dd2; experiment: Secondary screen: parasite growth inhibition by parasite lactate dehydrogenase (pLDH) assay, Dd2; type: cell-based, Plasmodium falciparum; design: key to Antiplasmodial activity class on Dd2: active, IC50 < 5 μg/mL; moderately active: 5 μg/mL ≤ IC50 ≤ 10 μg/mL; weakly active: IC50 ≥ 10 μg/mL
# Text: as §1, §2, §3, §4
# [6] = Plasmodium falciparum, 3D7 chloroquine-sensitive strain, pLDH assay, mean ± S.D., read-out: IC50
# [7] = Plasmodium falciparum, 3D7 chloroquine-sensitive strain, pLDH assay, mean ± S.D., read-out: IC90
# [8] = Plasmodium falciparum, Dd2 chloroquine-resistant strain, pLDH assay, mean ± S.D., read-out: IC50
# [9] = Plasmodium falciparum, Dd2 chloroquine-resistant strain, pLDH assay, mean ± S.D., read-out: IC90
# [10] = Plasmodium falciparum, 3D7 strain, class by IC50, read-out: Antiplasmodial activity class on 3D7
# [11] = Plasmodium falciparum, Dd2 strain, class by IC50, read-out: Antiplasmodial activity class on Dd2
# [12] = 3D7 chloroquine-sensitive strain, pLDH assay, mean ± S.D.
# [13] = Dd2 chloroquine-resistant strain, pLDH assay, mean ± S.D.
Compound,"Antiplasmodial activity class on 3D7 ([1]; 3D7 strain, class by IC50)","IC50 [1, 6]","IC90 [1, 7]",CC50 at 72 h [2],Mean SI [3],inhibition at 40 µg/mL [4],"Antiplasmodial activity class on Dd2 ([5]; Dd2 strain, class by IC50)","IC50 [5, 8]","IC90 [5, 9]",SI on 3D7 [3],"IC50 [1, 10]",SI on Dd2 [3],"IC50 [5, 11]","IC50 [1, 12]","IC90 [1, 12]",Inhibition (%) of P. falciparum Dd2 growth [4],"IC50 [5, 13]","IC90 [5, 13]"
"OC(c1ccc(F)cc1)C1CCN(Cc2ccc(Cl)cc2)CC1 (centres unmarked) [Compound 9, [1-(4-chlorobenzyl)piperidin-4-yl] [4-fluorophenyl] methanol]",active,1.53 ± 0.24 µg/mL,16.1 ± 2.13 µg/mL,250 µg/mL,156.25 ± 9.5,93.2%,active,1.67 ± 0.24 µg/mL,16.1 ± 2.13 µg/mL,,,,,,,,,
"OC(c1ccc(F)cc1)C1CCN(Cc2ccc(Br)cc2)CC1 (centres unmarked) [Compound 11, [1-(4-bromobenzyl)piperidin-4-yl] [4-fluorophenyl] methanol]",active,2.51 ± 0.3 µg/mL,16.8 ± 0.88 µg/mL,188 µg/mL,128.26 ± 76.1,85.6%,active,1.03 µg/mL,27.8 ± 0.98 µg/mL,74.49,,,,,,,,
"CO[C@H]1O[C@@H]2O[C@@]3(C)CC[C@H]4[C@H](C)CC[C@@H]([C@H]1C)[C@@]24OO3 [Art, artemether, reference compound]",,0.045 µg/mL,,,,,,0.039 µg/mL,0.046 µg/mL,,,,,,,,,
"O=C(c1ccc(F)cc1)C1CCN(Cc2ccc(F)cc2)CC1 [Compound 1, [1-(4-fluorobenzyl)piperidin-4-yl] [4-fluorophenyl] methanone]",,8.45 ± 2.11 µg/mL,17.9 ± 0.18 µg/mL,188 µg/mL,27.54 ± 7.59,83.2%,,5.69 ± 2.38 µg/mL,27.6 ± 0.78 µg/mL,22.17,5 to 10 µg/mL,32.91,5 to 10 µg/mL,,,,,
"Cc1ccc(CN2CCC(C(O)c3ccc(F)cc3)CC2)cc1 (centres unmarked) [Compound 12, [1-(4-methylbenzyl)piperidin-4-yl] [4-fluorophenyl] methanol]",active,3.37 ± 0.82 µg/mL,15.7 µg/mL,188 µg/mL,61.46 ± 8.39,83.1%,active,2.78 ± 0.09 µg/mL,10.2 ± 3.31 µg/mL,55.52,,67.39,,,,,,
"C=C[C@H]1C[N@@]2CC[C@H]1C[C@H]2[C@H](O)c1ccnc2ccc(OC)cc12 [QN, quinine, reference compound]",,0.171 µg/mL,,,,,,0.127 µg/mL,,,,,,,,,,
N-{[1-(4-bromobenzyl) piperidin-4-yl] [4-fluorophenyl] methyl}-3-bromobenzylamine [Compound 14],active,,,,,,active,,,163,,,,2.28 ± 0.64 µg/mL,11.31 ± 3.50 µg/mL,86.0%,2.57 ± 1.64 µg/mL,16.21 ± 0.35 µg/mL
"O=C(c1ccc(F)cc1)C1CCN(Cc2ccc(Cl)cc2)CC1 [Compound 3, [1-(4-chlorobenzyl)piperidin-4-yl] [4-fluorophenyl] methanone]",active,3.21 ± 0.21 µg/mL,17.9 ± 2.39 µg/mL,62.5 µg/mL,17.31 ± 3.0,56.6%,active,4.12 ± 1.28 µg/mL,32.4 ± 0.67 µg/mL,,,,,,,,,
"O=C(c1ccc(F)cc1)C1CCN(Cc2ccc(Br)cc2)CC1 [Compound 5, [1-(4-bromobenzyl)piperidin-4-yl] [4-fluorophenyl] methanone]",,10 ± 0.3 µg/mL,17.2 ± 0.97 µg/mL,,,64.8%,,14.5 ± 1.34 µg/mL,32.3 ± 4.17 µg/mL,,≥ 10 µg/mL,,≥ 10 µg/mL,,,,,
"Cc1ccc(CN2CCC(C(=O)c3ccc(F)cc3)CC2)cc1 [Compound 6, [1-(4-methylbenzyl)piperidin-4-yl] [4-fluorophenyl] methanone]",,13.6 ± 0.31 µg/mL,19.1 ± 2.46 µg/mL,,,59.1%,,12.8 ± 3.21 µg/mL,37.1 ± 0.53 µg/mL,,≥ 10 µg/mL,,≥ 10 µg/mL,,,,,
"O=C(c1ccc(F)cc1)C1CCN(Cc2ccccc2[N+](=O)[O-])CC1 [Compound 4, [1-(2-nitrobenzyl)piperidin-4-yl] [4-fluorophenyl] methanone]",,,,,,27.7%,,,,,,,,,,poor inhibition,,
"O=[N+]([O-])c1ccccc1CN1CCC(C(O)c2ccc(F)cc2)CC1 (centres unmarked) [Compound 10, [1-(2-nitrobenzyl)piperidin-4-yl] [4-fluorophenyl] methanol]",,13.5 ± 0.54 µg/mL,19.11 ± 0.02 µg/mL,,,79.7%,,14 ± 1.76 µg/mL,35.3 ± 2.02 µg/mL,,≥ 10 µg/mL,,≥ 10 µg/mL,,,,,
